Reference: patent US20230167073A1 (Teijin Pharma Limited, priority 2020, published 2023)

Each compound was assayed against T1, Human TRPC6 (Homo sapiens, UniProt Q9Y210) (assay: Evaluation of TRPC6 channel inhibitory activity (1), FLIPR Calcium 5 Assay Kit, OAG stimulation (Compound Nos. 1-1293)). Details: Human TRPC6 stably-expressing cells, OAG 30 μM, FLIPR Calcium 5 Assay Kit; read-out: Inhibitory activity (pIC50 class) (converted).
T1 construct: expressed in transfected cells
T1 sequence (Q9Y210 1-931): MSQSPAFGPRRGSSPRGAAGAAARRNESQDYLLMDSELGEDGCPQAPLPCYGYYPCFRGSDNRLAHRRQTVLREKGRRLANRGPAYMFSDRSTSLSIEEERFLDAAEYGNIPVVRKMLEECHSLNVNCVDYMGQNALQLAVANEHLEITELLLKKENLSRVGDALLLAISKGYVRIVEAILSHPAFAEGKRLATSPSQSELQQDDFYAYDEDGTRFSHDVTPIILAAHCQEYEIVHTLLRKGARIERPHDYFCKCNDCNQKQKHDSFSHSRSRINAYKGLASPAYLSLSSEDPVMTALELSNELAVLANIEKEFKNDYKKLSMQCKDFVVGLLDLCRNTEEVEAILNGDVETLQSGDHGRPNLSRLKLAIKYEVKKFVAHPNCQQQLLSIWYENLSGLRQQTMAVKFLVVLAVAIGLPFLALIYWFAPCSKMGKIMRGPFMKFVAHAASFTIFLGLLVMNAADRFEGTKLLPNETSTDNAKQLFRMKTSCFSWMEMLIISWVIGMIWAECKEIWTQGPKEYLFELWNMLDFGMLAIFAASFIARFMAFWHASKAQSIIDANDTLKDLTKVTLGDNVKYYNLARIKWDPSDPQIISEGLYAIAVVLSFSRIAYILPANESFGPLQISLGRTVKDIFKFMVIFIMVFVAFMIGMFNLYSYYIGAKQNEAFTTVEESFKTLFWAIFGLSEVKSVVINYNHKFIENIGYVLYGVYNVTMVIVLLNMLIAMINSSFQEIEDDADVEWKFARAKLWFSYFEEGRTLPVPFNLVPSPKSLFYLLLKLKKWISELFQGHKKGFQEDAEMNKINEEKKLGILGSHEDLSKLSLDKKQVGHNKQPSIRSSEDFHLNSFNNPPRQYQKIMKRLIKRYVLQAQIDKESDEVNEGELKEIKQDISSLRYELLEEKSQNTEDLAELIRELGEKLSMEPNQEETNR
Assay type: cell-based
Outline: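 Calcium influx read by FLIPR fluorescence in cells stably expressing human TRPC6, dye-loaded 30 min. Compounds preincubated 20 min, then OAG stimulation at 30 μM final. Inhibition fitted by four-parameter logistic regression to give pIC50, reported as +/++/+++ categories.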
An IC50 of 10 to 1000 nM was found for `CN(C)c1cc(Sc2cc(C#N)ccc2-c2ccc(CN)cn2)cnn1` [compound 1266, 4-[5-(aminomethyl)pyridin-2-yl]-3-[6-(dimethylamino)pyridazin-4-yl]sulfanylbenzonitrile] in this work. `CN(C)c1cc(Sc2cc(C#N)ccc2-c2ncc(CN)cn2)cnn1` [compound 1267, 4-[5-(aminomethyl)pyrimidin-2-yl]-3-[6-(dimethylamino)pyridazin-4-yl]sulfanylbenzonitrile] was tested, and the IC50 was > 1000 nM. An IC50 of 10 to 1000 nM was found for `N#Cc1ccc(-c2ncc(CN)cn2)c(Sc2cnnc(N3CCCCC3)c2)c1` [compound 1268, 4-[5-(aminomethyl)pyrimidin-2-yl]-3-(6-piperidin-1-ylpyridazin-4-yl)sulfanylbenzonitrile] in this work. `N#Cc1ccc(-c2ncc(CN)cn2)c(Sc2nnc(N3CCCCC3)s2)c1` [compound 1269, 4-[5-(aminomethyl)pyrimidin-2-yl]-3-[(5-piperidin-1-yl-1,3,4-thiadiazol-2-yl)sulfanyl]benzonitrile] was tested, and the IC50 was > 1000 nM. An IC50 of 10 to 1000 nM was found for `N#Cc1ccc(-c2ncc(CCN)cn2)c(Sc2nnc(N3CCCCC3)s2)c1` [compound 1270, 4-[5-(2-aminoethyl)pyrimidin-2-yl]-3-[(5-piperidin-1-yl-1,3,4-thiadiazol-2-yl)sulfanyl]benzonitrile] in this work. `N#Cc1ccc(-c2ncc(CN)cn2)c(Sc2nnc(N3CCOCC3)s2)c1` [compound 1271, 4-[5-(aminomethyl)pyrimidin-2-yl]-3-[(5-morpholin-4-yl-1,3,4-thiadiazol-2-yl)sulfanyl]benzonitrile] was tested, and the IC50 was > 1000 nM. An IC50 of 10 to 1000 nM was found for `CC(C)Nc1cc(Sc2cc(C#N)ccc2-c2ncc(CN)cn2)cnn1` [compound 1272, 4-[5-(aminomethyl)pyrimidin-2-yl]-3-[6-(propan-2-ylamino)pyridazin-4-yl]sulfanylbenzonitrile] in this work. An IC50 of 10 to 1000 nM was found for `CC(C)CNc1cc(Sc2cc(C#N)ccc2-c2ncc(CN)cn2)cnn1` [compound 1273, 4-[5-(aminomethyl)pyrimidin-2-yl]-3-[6-(2-methylpropylamino)pyridazin-4-yl]sulfanylbenzonitrile] in this work. An IC50 of 10 to 1000 nM was found for `N#Cc1ccc(-c2ncc(CCN)cn2)c(Sc2sc(-c3ccccc3)nc2C#N)c1` [compound 1274, 5-[2-[5-(2-aminoethyl)pyrimidin-2-yl]-5-cyanophenyl]sulfanyl-2-phenyl-1,3-thiazole-4-carbonitrile] in this work. With `N#Cc1ccc(-c2ncc(CCN)cn2)c([S+]([O-])c2cnnc(-c3ccccc3)c2)c1` (stereo not drawn) [compound 1275, 4-[5-(2-aminoethyl)pyrimidin-2-yl]-3-(6-phenylpyridazin-4-yl)sulfinylbenzonitrile] the IC50 was > 1000 nM. An IC50 of 10 to 1000 nM was found for `Cn1nc(-c2ccccc2)cc1Oc1cc(C#N)ncc1-c1ccc(CN)cn1` [compound 1278, 5-[5-(aminomethyl)pyridin-2-yl]-4-(2-methyl-5-phenylpyrazol-3-yl)oxypyridine-2-carbonitrile] in this work. For `Cn1nc(-c2ccccn2)cc1Oc1nc(C#N)ccc1-c1ccc(CCN)cn1` [compound 1280, 5-[5-(2-aminoethyl)pyridin-2-yl]-6-(2-methyl-5-pyridin-2-ylpyrazol-3-yl)oxypyridine-2-carbonitrile], the IC50 was < 10 nM. An IC50 of 10 to 1000 nM was found for `Cn1nc(C2CC2)cc1Oc1nc(C#N)ccc1-c1ncc(CCN)cn1` [compound 1281, 5-[5-(2-aminoethyl)pyrimidin-2-yl]-6-(5-cyclopropyl-2-methylpyrazol-3-yl)oxypyridine-2-carbonitrile] in this work. An IC50 of 10 to 1000 nM was found for `Cc1cc(Oc2nc(C#N)ccc2-c2ccc(CCN)cn2)cc(N2CCCC2)n1` [compound 1282, 5-[5-(2-aminoethyl)pyridin-2-yl]-6-(2-methyl-6-pyrrolidin-1-ylpyridin-4-yl)oxypyridine-2-carbonitrile] in this work. For `Cn1nc(-c2ccccn2)cc1Oc1nc(C#N)ccc1-c1ncc(CN)cn1` [compound 1283, 5-[5-(aminomethyl)pyrimidin-2-yl]-6-(2-methyl-5-pyridin-2-ylpyrazol-3-yl)oxypyridine-2-carbonitrile], the IC50 was > 1000 nM. An IC50 of 10 to 1000 nM was found for `Cc1cc(Oc2nc(C#N)ccc2-c2ccc(CCN)cn2)cc(N2CCOCC2)n1` [compound 1284, 5-[5-(2-aminoethyl)pyridin-2-yl]-6-(2-methyl-6-morpholin-4-ylpyridin-4-yl)oxypyridine-2-carbonitrile] in this work. With `Cc1cc(Oc2nc(C#N)ccc2-c2ncc(CN)cn2)cc(N2CCOCC2)n1` [compound 1285, 5-[5-(aminomethyl)pyrimidin-2-yl]-6-(2-methyl-6-morpholin-4-ylpyridin-4-yl)oxypyridine-2-carbonitrile] the IC50 was > 1000 nM. With `Cc1cc(Oc2nc(C#N)ccc2-c2ncc(CN)cn2)cc(-c2ccccn2)n1` [compound 1286, 5-[5-(aminomethyl)pyrimidin-2-yl]-6-(2-methyl-6-pyridin-2-ylpyridin-4-yl)oxypyridine-2-carbonitrile] the IC50 was > 1000 nM. In the case of `Cn1nc(-c2ccccn2)cc1Oc1cc(C#N)cnc1-c1ncc(CN)cn1` [compound 1287, 6-[5-(aminomethyl)pyrimidin-2-yl]-5-(2-methyl-5-pyridin-2-ylpyrazol-3-yl)oxypyridine-3-carbonitrile], the IC50 was > 1000 nM. In the case of `Cn1nc(-c2ccccn2)cc1Oc1cc(C#N)cnc1-c1ccc(CN)cc1` [compound 1288, 6-[4-(aminomethyl)phenyl]-5-(2-methyl-5-pyridin-2-ylpyrazol-3-yl)oxypyridine-3-carbonitrile], the IC50 was > 1000 nM. An IC50 of 10 to 1000 nM was found for `Cn1nc(-c2ccccc2)cc1Oc1cc(Cl)ncc1-c1ccc(CCN)cn1` [compound 1290, 2-[6-[6-chloro-4-(2-methyl-5-phenylpyrazol-3-yl)oxypyridin-3-yl]pyridin-3-yl]ethanamine] in this work. `Cn1nc(-c2ccccc2)cc1Oc1cc(Cl)ncc1-c1ccc(CN)cn1` [compound 1291, [6-[6-chloro-4-(2-methyl-5-phenylpyrazol-3-yl)oxypyridin-3-yl]pyridin-3-yl]methanamine] was tested, and the IC50 was > 1000 nM. An IC50 of 10 to 1000 nM was found for `Cn1nc(-c2ccccc2)cc1Oc1nc(Cl)ccc1-c1ccc(CCN)cn1` [compound 1292, 2-[6-[6-chloro-2-(2-methyl-5-phenylpyrazol-3-yl)oxypyridin-3-yl]pyridin-3-yl]ethanamine] in this work. An IC50 of 10 to 1000 nM was found for `Cn1nc(-c2ccccc2)cc1Oc1nc(Cl)ccc1-c1ccc(CN)cn1` [compound 1293, [6-[6-chloro-2-(2-methyl-5-phenylpyrazol-3-yl)oxypyridin-3-yl]pyridin-3-yl]methanamine] in this work.
